Results published in PMC8344022, “Small-molecule inhibitor of AF9/ENL-DOT1L/AF4/AFF4 interactions suppresses malignant gene expression and tumor growth” (Theranostics, 2021).
Where two headings read alike, the source gives them in different places.

Assays:
ENL-AFF4 interaction = target: T1, ENL-AFF4 interaction (Homo sapiens, UniProt Q03111); experiment: Alpha assay, ENL-AFF4 interaction; assay type: binding; settings: read-out: IC50, inhibition of ENL-AFF4 interaction
T1 construct: ENL AHD domain (489-559) was synthesized (by Genscript) and inserted into the pMAL c5X expression plasmid; made in house; host or cells: E. coli BL21(DE3)
T1 sequence (Q03111 489-559): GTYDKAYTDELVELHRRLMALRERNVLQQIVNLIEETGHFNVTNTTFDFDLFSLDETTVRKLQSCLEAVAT
Protocol: ENL is also a major MLL fusion partner (~10%). The AHD domains of human ENL and AF9 share a high homology with 82% identity and 89% similarity (Figure S1A). […] Our attempts to develop an Alpha assay for ENL-DOT1L failed. […] Compound 1's activity against ENL-DOT1L was therefore not determined.
(§1) Alpha assays. Alpha assays were developed using Perkin-Elmer AlphaLisa anti-MBP kit, which contains streptavidin donor beads and anti-MBP acceptor beads. The assay was performed using a MBP-protein (5 nM), a biotinylated peptide (40 nM), and increasing concentrations of a compound in 25 µL buffer (PBS with 0.5 % BSA, pH 7.5) in 384-well plates according to the manufacturer's protocol and measured with a Tecan SPARK microplate reader. Data were imported into Prism (version 5.0), and IC50 values from 3 independent experiments with standard deviation were obtained by using a standard dose-response curve fitting.

[1] = system: AF9/ENL-DOT1L/AF4/AFF4 interactions; experiment: Biochemical assays of PPIs between AF9/ENL and DOT1L/AF4/AFF4 (overall); assay type: binding, human; settings: for IC50: range over the PPIs tested, read-out: IC50s against AF9/ENL-DOT1L/AF4/AFF4 interactions (range over PPIs)
Protocol: Because both FP and Alpha assays are unsuitable for studies of AF9/ENL binding kinetics, we compared the IC50s of the inhibitor with the Kds of the PPIs (Table 1).
as §1
Fluorescence polarization assay. It was performed in 96-well black microplates with each well containing a Fluorescein-labeled peptide (2 nM) and increasing concentration of a AF9/ENL protein in a buffer (20 mM HEPES, pH 7.5, 0.01% Triton X-100, 100 µL) for Kd determination. For IC50 determination, a Fluorescein-labeled peptide (2 nM), AF9/ENL protein (100 nM) and increasing concentration of a compound in the same buffer were placed in each well. Upon incubation of 1h, the FP value of each well was determined using a Tecan SPARK microplate reader. Data were similarly processed to obtain Kd or IC50 values.

MCF-7 cells = experiment: Antiproliferation assay (MTT); assay type: cell-based; settings: Homo sapiens, MCF7, 168 h, 7-day incubation, read-out: Cytotoxicity EC50
Protocol: (§2) Antiproliferation assay. Proliferation inhibition assays for suspension blood cancer cells were performed using an XTT assay kit (Roche). Proliferation inhibition assays for solid tumor cell lines MCF-7, MDA-MB-231, Panc1, Panc28 were performed using an MTT assay (Sigma). The antiproliferation EC50 values were determined using Prism 5 and the reported results were the mean values of at least three independent experiments. The incubation time for compound 1 was 7 days and that for EPZ4777 was 14 days.

MDA-MB-231 cells = experiment: Antiproliferation assay (MTT); assay type: cell-based; settings: Homo sapiens, 168 h, 7-day incubation, read-out: Cytotoxicity EC50
Protocol: as §2

Panc-1 cells = experiment: Antiproliferation assay (MTT); assay type: cell-based; settings: Homo sapiens, 168 h, 7-day incubation, read-out: Cytotoxicity EC50
Protocol: as §2

Panc-28 cells = experiment: Antiproliferation assay (MTT); assay type: cell-based; settings: 168 h, 7-day incubation, read-out: Cytotoxicity EC50
Protocol: as §2

[2] = system: cytoplasmic protein levels in MV4;11 cells; experiment: Western blot of cytoplasmic proteins; assay type: cell-based; settings: 3 days, except for ENL at 15 µM
Protocol: (§3) Figure S4. The cytoplasmic protein levels after treatment with Cpd-1 for 3 days. (A) In contrast to the protein
(§4) me2, ENL and AFF4 in MV4;11 cells, except for ENL at 15 µM.
(§5) (1 picture or pasted object on this page, not shown here)

[3] = system: cytoplasmic protein levels in Molm-13 cells; experiment: Western blot of cytoplasmic proteins; assay type: cell-based; settings: 3 days
Protocol: as §3, §4, §5

[4] = system: HoxA9, Meis1 and Myc expression in MV4;11 cells; experiment: qPCR of MLL target genes; assay type: cell-based; settings: 4 days
Protocol: (§6) Next, compound 1 was tested for its ability to change expression of characteristic MLL-r leukemia genes HoxA9, Meis1 and Myc. Myc is also overexpressed in a broad range of AML and other cancers. […] (Figure S5), presumably because SEC is not recruited there.
(§7) RNA extraction and Quantitative real-time PCR (qPCR). 10^5 cells/ml were incubated with a compound for 4 days and the RNA was extracted using RNeasy mini kit (#74104, Qiagen). 100-1000 ng of total RNA was reverse transcribed using iScript™ Reverse Transcription Supermix (Bio-Rad) using the manufacturer's protocol. Quantitative real-time PCR was carried out using Fast SYBR Green Master Mix (Applied Biosystems) according to the manufacturer's instructions. Measurements were performed in triplicate, using GAPDH as the reference gene. Real-time PCR was performed using Biosystems Step One Plus detection system. The following sequences of primers are used: […]

[5] = system: HoxA9, Meis1 and Myc expression in Molm-13 cells; experiment: qPCR of MLL target genes; assay type: cell-based; settings: 4 days
Protocol: as §6, §7

[6] = system: H3K79me2 at gene promoters in Molm-13 cells; experiment: Chromatin immunoprecipitation (ChIP)-qPCR; assay type: cell-based
Protocol: as §6
Chromatin immunoprecipitation. […] Cells were lysed with nuclear lysis buffer and sonicated to ~100-1000 bp fragments, which was incubated at 4 °C overnight with the H3K79me2 antibody (#5427, Cell signaling) and IgG (C15410206, Diagenode). Protein A/G Magnetic Beads (10 µL, Novus Biologicals) were added and incubated for 2 h. The beads were washed 3x with RIPA buffer and 2x with TE buffer. DNA on the beads was eluted for 2 hours at 68 °C in 100 μL of an elution buffer (20 mM Tris pH 7.5, 5 mM EDTA, 50 mM NaCl, 1% SDS, 50 μg/ml proteinase K) (2x), and purified using a ChIP DNA Clean & Concentrator kit (Novus Biologicals). qPCR was done using the method described above.

Molm-13 cells = experiment: Annexin V apoptosis assay (flow cytometry); assay type: cell-based
Protocol: Compound 1 (5 μM for 5 days) induced significant differentiation, with more cell populations expressing CD14 and CD11b, two cell surface proteins for macrophages/monocytes (Figure 5B).
Flow cytometry. […] Apoptosis was determined using the FITC Annexin V Apoptosis Detection Kit I (BD Bioscience) using the manufacturer's protocol. For other FACS assays, cells were labeled with fluorochrome-conjugated monoclonal antibodies against human CD14 and CD11b (BD Biosciences) according to the manufacturer's recommendation. Cells were analyzed using a FACS Calibur (BD Biosciences/Applied Biosystems) and data were processed using the program Flowjo (version7.6.5).

CC(C)(C)c1ccc(-n2cc(C(=O)NC3CCNCC3)nc2-c2ccccc2)cc1 [Compound 1]
IC50 (ENL-AFF4 interaction): 3.3 ± 0.3 µM | Mode of inhibition ([1]; comparison of IC50s with Kds of the PPIs): non-competitive mode of inhibition | IC50 ([1]; listed as Compound-1): 0.9 to 3.5 µM | IC50 [1]: 0.94 to 3.5 µM | EC50 (MCF-7 cells): 19.8 ± 0.3 µM | EC50 (MDA-MB-231 cells): 13.5 ± 0.2 µM | EC50 (Panc-1 cells): 15.1 ± 0.2 µM | EC50 (Panc-28 cells): 23.8 ± 0.2 µM | Cytoplasmic protein levels of H3K79me1 and me2, ENL and AFF4 [2]: did not significantly reduce | Cytoplasmic levels of H3K79me1 and me2, ENL and AFF4 [3]: did not significantly reduce | Expression of MLL target genes HoxA9, Meis1 and Myc [4]: dose-dependently suppressed expression | Expression of MLL target genes HoxA9, Meis1 and Myc [5]: dose-dependently suppressed expression | H3K79-Me2 in a non-transcribed DNA region [6]: did not significantly reduce H3K79-Me2 | H3K79me2 in the gene promoters of HoxA9 and Myc ([6]; 5 μM for 4 days): decreased levels of H3K79me2 | Apoptosis (Molm-13 cells; 5 µM, 5-day incubation): did not cause significant apoptosis | Apoptosis (Molm-13 cells; 10 µM, 5 days): 44.2% | Apoptosis (Molm-13 cells; 15 µM, 5 days): 73.6% | Apoptosis (Molm-13 cells; short-term 2- or 3-day incubation): < 5%
